Source: ChEMBL document CHEMBL1201862, “PubChem BioAssay data set” (2004)
The source made the active and inactive calls.

How the values were obtained:
[1] = biological target: Serine/threonine-protein kinase pim-2 (Homo sapiens, UniProt Q9P1W9); type: functional;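 note: value comes from a broad kinase panel profiling study in which PIM2 was one of the panel members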
[2] = biological target: cGMP-dependent protein kinase 1 (Homo sapiens, UniProt Q13976); type: functional;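 note: value from a kinome panel screen with PRKG1 as the panel member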
[3] = biological target: Phosphorylase b kinase gamma catalytic chain, liver/testis isoform (Homo sapiens, UniProt P15735); type: functional;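 note: PHKG2 measured as one member of a kinome-wide kinase panel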
[4] = biological target: MAP kinase-activated protein kinase 3 (Homo sapiens, UniProt Q16644); type: functional;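 note: value comes from a kinome-wide profiling panel in which MAPKAPK3 is one of the panel members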
[5] = biological target: Serine/threonine-protein kinase Nek2 (Homo sapiens, UniProt P51955); type: functional
[6] = biological target: Platelet-derived growth factor receptor beta (Homo sapiens, UniProt P09619); type: functional;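 note: value comes from a kinome panel, with PDGFRB tested as one panel member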
Aurora kinase A = biological target: T1, Aurora kinase A (Homo sapiens, UniProt O14965); type: functional;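 note: value from the Navigating the Kinome kinase panel profiling, panel entry STK6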
T1 sequence (O14965 whole entry): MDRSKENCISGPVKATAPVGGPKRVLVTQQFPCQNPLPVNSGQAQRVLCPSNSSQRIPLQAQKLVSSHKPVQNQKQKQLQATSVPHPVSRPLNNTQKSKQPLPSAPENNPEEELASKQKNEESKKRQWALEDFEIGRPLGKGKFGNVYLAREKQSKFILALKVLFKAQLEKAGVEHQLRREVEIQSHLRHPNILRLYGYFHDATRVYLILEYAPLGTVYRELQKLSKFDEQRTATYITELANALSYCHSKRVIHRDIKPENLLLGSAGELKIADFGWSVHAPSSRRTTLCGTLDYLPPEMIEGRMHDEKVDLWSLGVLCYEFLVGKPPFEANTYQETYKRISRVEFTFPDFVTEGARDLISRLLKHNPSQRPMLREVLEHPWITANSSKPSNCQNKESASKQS

Caspase-9 = Caspase-9 (Homo sapiens, UniProt P55211); test: inhibitors of purified CASP9 protease – biochemical, fluorescence, plate reader, cherry-picked samples, selectivity assay for caspase-6 inhibitor project, dose response (AID 743293)
[7] = biological target: T2, Sentrin-specific protease 7 (Homo sapiens, UniProt Q9BQF6); type: functional;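 note: Luminescence-based dose-response confirmation of ultra-high-throughput screening hits, measuring inhibition of SENP7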
T2 sequence (Q9BQF6 whole entry): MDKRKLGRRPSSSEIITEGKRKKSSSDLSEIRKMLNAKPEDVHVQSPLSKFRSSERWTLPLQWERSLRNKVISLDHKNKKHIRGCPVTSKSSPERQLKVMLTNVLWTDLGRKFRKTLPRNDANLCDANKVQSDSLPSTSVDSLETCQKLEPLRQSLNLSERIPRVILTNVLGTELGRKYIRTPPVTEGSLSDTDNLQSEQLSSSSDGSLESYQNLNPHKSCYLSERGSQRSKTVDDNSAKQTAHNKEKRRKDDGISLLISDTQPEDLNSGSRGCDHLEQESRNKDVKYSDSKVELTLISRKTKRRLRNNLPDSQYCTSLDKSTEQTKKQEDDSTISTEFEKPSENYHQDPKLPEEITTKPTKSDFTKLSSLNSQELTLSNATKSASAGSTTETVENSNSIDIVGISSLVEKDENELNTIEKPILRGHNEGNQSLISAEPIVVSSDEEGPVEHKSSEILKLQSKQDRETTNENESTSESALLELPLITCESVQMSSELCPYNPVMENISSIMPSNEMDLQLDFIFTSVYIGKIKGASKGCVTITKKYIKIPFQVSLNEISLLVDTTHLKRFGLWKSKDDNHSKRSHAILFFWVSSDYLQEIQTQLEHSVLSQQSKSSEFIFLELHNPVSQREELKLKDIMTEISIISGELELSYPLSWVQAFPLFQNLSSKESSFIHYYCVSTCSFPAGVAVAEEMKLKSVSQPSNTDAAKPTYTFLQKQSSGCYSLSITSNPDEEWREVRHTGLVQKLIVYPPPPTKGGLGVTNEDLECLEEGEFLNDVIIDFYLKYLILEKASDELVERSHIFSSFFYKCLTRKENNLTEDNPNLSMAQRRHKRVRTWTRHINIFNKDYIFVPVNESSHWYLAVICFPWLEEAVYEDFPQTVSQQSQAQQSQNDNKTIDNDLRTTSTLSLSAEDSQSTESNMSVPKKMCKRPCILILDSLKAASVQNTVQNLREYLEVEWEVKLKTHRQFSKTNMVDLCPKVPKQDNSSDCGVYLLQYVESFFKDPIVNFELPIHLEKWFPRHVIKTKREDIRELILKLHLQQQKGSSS

[8] = biological target: T3, Sentrin-specific protease 6 (Homo sapiens, UniProt Q9GZR1); type: functional;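 note: Luminescence-based dose-response confirmatory assay of SENP6 inhibition, following up an ultra-high-throughput screen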
T3 sequence (Q9GZR1 whole entry): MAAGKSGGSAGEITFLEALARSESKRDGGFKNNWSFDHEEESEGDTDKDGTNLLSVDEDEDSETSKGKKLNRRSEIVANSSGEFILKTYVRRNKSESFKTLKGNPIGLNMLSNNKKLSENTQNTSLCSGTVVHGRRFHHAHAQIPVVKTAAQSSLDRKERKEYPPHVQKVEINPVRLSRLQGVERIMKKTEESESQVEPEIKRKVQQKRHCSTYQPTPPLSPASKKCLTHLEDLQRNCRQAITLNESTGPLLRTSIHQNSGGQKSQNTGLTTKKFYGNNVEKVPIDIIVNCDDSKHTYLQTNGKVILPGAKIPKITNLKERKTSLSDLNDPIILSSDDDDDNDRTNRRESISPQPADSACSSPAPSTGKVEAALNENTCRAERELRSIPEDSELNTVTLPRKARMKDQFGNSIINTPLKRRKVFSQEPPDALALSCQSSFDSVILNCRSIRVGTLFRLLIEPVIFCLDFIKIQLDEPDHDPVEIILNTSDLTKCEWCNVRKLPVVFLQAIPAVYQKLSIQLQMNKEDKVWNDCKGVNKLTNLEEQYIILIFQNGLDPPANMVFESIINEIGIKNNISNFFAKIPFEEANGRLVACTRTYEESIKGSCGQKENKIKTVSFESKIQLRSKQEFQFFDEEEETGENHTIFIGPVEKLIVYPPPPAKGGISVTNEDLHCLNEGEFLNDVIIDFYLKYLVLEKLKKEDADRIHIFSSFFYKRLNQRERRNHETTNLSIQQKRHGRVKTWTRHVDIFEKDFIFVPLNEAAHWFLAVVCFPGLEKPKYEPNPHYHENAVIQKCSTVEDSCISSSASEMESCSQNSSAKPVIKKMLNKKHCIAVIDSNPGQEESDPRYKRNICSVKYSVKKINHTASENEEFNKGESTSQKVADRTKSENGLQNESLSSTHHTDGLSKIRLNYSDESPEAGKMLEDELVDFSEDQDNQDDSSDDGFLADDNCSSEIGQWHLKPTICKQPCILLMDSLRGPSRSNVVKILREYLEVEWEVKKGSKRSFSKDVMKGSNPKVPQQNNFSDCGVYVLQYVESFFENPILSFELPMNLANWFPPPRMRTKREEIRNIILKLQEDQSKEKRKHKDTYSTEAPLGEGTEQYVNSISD

Sequence of Serine/threonine-protein kinase Nek2 (P51955 whole entry): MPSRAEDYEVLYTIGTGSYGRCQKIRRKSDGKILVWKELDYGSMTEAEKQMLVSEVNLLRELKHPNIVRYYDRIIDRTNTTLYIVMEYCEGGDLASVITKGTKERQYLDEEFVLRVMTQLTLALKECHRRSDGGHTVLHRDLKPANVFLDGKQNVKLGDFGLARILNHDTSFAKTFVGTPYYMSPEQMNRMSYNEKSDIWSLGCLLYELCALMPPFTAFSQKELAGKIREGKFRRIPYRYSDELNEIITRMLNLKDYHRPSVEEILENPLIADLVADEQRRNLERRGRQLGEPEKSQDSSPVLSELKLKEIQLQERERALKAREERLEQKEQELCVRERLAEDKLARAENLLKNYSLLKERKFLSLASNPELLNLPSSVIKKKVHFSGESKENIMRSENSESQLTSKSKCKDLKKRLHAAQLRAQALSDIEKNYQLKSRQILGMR
Sequence of Phosphorylase b kinase gamma catalytic chain, liver/testis isoform (P15735 whole entry, canonical isoform): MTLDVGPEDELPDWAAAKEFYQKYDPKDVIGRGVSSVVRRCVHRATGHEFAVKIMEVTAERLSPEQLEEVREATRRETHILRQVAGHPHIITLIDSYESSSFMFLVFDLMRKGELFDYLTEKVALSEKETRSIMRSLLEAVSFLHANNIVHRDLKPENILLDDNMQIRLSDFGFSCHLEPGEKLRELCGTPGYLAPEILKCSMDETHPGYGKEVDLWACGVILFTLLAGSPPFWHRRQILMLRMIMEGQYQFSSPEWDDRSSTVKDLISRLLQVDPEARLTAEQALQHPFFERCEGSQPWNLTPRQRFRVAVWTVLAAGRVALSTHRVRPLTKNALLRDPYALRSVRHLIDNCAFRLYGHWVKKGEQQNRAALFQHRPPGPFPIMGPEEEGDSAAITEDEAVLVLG
Sequence of cGMP-dependent protein kinase 1 (Q13976 whole entry, canonical isoform): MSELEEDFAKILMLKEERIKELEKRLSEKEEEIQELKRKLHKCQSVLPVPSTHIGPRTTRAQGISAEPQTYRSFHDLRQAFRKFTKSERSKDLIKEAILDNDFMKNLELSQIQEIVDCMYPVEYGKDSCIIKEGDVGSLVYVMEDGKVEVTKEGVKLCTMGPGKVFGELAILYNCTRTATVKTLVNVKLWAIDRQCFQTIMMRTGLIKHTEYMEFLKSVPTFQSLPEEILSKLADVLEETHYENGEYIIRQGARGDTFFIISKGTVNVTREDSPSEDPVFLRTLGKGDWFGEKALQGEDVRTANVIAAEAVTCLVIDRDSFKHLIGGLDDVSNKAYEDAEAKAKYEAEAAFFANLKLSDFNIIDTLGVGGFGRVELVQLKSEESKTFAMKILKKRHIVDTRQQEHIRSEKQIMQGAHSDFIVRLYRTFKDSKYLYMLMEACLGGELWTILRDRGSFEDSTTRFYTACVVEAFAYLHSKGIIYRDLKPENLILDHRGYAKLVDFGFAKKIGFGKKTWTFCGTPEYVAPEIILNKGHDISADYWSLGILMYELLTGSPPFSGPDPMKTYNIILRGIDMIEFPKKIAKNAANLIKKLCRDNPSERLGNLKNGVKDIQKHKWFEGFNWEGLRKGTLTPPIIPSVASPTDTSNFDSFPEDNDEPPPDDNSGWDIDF
Sequence of Serine/threonine-protein kinase pim-2 (Q9P1W9 whole entry): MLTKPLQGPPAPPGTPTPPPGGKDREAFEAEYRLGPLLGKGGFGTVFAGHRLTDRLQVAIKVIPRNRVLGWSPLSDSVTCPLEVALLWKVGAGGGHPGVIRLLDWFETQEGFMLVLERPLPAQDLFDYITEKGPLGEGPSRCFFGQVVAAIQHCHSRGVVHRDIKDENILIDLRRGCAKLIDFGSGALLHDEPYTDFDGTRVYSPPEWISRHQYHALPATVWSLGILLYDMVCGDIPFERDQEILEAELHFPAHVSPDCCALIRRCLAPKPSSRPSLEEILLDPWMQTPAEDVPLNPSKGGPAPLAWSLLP
Sequence of Caspase-9 (P55211 1-315 limits assumed): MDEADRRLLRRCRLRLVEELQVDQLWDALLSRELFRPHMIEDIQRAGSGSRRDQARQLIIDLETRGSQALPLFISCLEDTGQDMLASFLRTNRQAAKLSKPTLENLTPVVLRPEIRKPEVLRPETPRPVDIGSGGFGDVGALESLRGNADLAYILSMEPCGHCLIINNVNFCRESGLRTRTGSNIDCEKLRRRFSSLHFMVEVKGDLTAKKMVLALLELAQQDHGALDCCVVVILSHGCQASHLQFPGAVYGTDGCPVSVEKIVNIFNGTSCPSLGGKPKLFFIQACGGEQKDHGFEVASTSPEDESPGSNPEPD
Sequence of Caspase-9 (P55211 331-416 limits assumed): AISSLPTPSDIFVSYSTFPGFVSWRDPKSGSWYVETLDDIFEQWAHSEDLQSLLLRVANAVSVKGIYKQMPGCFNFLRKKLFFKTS
Sequence of Platelet-derived growth factor receptor beta (P09619 whole entry): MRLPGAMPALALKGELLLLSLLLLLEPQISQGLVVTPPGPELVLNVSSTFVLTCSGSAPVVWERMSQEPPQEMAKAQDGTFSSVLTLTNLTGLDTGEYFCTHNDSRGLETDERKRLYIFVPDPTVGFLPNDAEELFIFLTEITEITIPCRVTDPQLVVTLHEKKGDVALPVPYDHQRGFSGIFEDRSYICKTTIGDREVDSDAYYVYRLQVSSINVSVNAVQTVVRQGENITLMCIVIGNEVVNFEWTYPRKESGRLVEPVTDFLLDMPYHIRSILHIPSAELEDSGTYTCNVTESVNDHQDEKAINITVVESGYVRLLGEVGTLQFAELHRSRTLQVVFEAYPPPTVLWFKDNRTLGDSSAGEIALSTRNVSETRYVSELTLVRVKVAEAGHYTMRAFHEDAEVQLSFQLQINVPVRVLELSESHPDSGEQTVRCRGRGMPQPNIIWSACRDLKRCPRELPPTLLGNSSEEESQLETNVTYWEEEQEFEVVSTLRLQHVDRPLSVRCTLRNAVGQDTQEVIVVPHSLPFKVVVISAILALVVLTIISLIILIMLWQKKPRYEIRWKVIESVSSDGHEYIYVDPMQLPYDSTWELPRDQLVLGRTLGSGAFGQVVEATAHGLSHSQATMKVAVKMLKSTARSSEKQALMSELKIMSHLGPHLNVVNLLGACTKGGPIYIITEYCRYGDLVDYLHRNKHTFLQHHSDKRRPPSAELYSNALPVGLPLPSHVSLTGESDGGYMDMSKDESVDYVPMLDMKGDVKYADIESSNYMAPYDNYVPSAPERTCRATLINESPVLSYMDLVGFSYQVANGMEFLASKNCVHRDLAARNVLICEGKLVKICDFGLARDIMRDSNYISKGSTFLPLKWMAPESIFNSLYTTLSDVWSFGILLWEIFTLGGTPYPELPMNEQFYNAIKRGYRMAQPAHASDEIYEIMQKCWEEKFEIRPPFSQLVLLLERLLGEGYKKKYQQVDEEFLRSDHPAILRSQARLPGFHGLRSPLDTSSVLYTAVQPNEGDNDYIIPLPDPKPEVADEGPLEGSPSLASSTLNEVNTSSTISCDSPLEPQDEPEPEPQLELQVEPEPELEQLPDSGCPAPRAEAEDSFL
Sequence of MAP kinase-activated protein kinase 3 (Q16644 whole entry): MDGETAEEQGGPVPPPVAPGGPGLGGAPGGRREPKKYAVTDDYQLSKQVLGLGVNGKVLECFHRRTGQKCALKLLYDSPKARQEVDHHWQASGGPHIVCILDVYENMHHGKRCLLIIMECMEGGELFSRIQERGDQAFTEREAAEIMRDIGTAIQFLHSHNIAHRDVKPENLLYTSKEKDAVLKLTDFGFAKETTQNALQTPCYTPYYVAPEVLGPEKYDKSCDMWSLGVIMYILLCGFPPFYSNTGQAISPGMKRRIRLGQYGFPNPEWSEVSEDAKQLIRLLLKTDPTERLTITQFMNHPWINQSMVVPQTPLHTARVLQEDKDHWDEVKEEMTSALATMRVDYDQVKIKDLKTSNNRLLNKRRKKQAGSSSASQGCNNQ

Compound: OC1CCC(Nc2nc(Cl)cc(-c3c[nH]c4ncccc34)n2)CC1 (centres undefined)
- Ki [1]: 398 nM (active)
- pKi [1]: 6.4
- Ki [2]: 100 nM (active)
- pKi [2]: 7
- Ki [3]: 200 nM (active)
- pKi [3]: 6.7
- Ki [4]: > 10000 nM (inactive)
- Ki [5]: 6310 nM (active)
- pKi [5]: 5.2

Compound: COc1cccc(CNC(=O)c2cnc(-c3ccncc3)nc2)c1
- Ki [6]: > 2000 nM (inactive)
- Ki (Aurora kinase A): > 1580 nM (inactive)

Compound: O=C(COC(=O)c1ccc([N+](=O)[O-])s1)Nc1ccc(F)cc1
- AC50 (Caspase-9): 27200 nM (active)
- IC50 [7]: 6290 nM (active)
- IC50 [8]: 3820 nM (active)
